Laboratory results reported in ChEMBL document CHEMBL5338706, “Discovery of a potent and selective proteolysis targeting chimera (PROTAC) degrader of NSD3 histone methyltransferase” (Eur J Med Chem, 2022).
The source made the active and inactive calls. The calls are words filed in the database; no cut-off is given here.

Assays:
[1] = target: T1, Histone-lysine N-methyltransferase NSD3 (Homo sapiens) (UniProt Q9BZ95); assay: Induction of NSD3 degradation in human NCI-H1703 cells at 5 uM incubated for 72 hrs by Western blot analysis; format: cell-based
T1 sequence (whole entry): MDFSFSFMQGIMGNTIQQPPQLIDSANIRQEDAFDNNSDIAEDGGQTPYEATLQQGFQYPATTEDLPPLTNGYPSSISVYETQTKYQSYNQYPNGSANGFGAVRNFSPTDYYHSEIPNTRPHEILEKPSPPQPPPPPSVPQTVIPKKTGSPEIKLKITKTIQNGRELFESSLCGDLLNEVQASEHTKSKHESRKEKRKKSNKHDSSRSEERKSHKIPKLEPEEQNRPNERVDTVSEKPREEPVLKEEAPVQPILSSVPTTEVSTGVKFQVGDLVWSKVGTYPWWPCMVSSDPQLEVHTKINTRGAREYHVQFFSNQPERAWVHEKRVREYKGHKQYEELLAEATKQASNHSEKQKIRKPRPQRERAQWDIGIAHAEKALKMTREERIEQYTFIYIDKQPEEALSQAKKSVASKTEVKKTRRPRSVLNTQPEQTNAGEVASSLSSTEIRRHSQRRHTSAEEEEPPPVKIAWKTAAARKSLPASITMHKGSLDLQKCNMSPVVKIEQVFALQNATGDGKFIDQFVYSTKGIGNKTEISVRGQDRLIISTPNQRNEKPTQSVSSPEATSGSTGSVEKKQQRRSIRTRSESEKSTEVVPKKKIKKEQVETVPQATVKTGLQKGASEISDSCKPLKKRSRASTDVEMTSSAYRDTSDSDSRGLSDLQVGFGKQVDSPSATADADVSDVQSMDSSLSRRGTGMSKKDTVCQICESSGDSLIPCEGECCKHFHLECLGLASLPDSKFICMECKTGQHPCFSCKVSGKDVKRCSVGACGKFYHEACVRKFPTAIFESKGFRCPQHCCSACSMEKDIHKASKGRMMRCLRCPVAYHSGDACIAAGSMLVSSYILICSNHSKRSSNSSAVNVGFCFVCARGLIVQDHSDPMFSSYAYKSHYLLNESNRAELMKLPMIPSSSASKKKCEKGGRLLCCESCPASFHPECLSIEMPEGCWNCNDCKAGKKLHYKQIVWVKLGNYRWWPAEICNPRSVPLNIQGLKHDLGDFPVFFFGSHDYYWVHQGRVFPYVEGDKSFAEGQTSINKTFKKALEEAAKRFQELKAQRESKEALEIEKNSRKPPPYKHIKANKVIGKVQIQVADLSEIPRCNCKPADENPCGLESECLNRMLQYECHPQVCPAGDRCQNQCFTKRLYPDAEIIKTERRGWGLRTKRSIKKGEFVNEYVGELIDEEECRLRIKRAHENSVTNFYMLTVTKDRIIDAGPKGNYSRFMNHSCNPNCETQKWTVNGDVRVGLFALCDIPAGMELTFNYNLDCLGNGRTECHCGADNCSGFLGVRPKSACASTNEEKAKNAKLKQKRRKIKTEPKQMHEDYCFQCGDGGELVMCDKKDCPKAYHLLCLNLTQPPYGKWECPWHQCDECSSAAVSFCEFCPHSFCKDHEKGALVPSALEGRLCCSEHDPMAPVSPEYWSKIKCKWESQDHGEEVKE

[2] = target: T2, Histone-lysine N-methyltransferase NSD3 (Homo sapiens, UniProt Q9BZ95); assay: Induction of NSD3 degradation in human A549 cells measured after 72 hrs by Western blot analysis; format: cell-based
T2 sequence (Q9BZ95 whole entry): T1 sequence (whole entry)

[3] = target: T1, Histone-lysine N-methyltransferase NSD3 (Homo sapiens); assay: Induction of NSD3 degradation in human NCI-H1703 cells at 0.001 to 5 uM by Western blot analysis; format: cell-based; settings: dose 0.001-5 µM, time 12-72 hrs, TDE = time-dependent effect
[4] = target: T1, Histone-lysine N-methyltransferase NSD3 (Homo sapiens); assay: Induction of NSD3 degradation in human NCI-H1703 cells at 0.001 to 10 uM by Western blot analysis; format: cell-based; settings: dose 0.001-10 µM, time <= 72.0 hrs, TDE = time-dependent effect
NCI-H1703 [5] = assay: Downregulation of CDC25A in human NCI-H1703 cells at […] measured after 72 hrs by RNA sequencing assay; format: functional, cell-based; settings: dose 7.5 µM
NCI-H1703 [6] = assay: Induction of cell cycle arrest in human NCI-H1703 cells assessed as increase accumulation of cells at G2/M phase at […] incubated for 48 hrs by propidium iodide staining based analysis; format: functional; settings: dose 7.5 µM
NCI-H1703 [7] = assay: Downregulation of CDC25A level in human NCI-H1703 cells at 3 to […] by Western blot analysis; format: functional, cell-based; settings: dose 3-7.5 µM
NCI-H1703 [8] = assay: Induction of apoptosis in human NCI-H1703 cells assessed as viable cells at 5 uM measured after 72 hrs by PI/Annexin-V staining based flow cytometry analysis (reference value: 92.7% ); format: functional; settings: read-out: Activity
NCI-H1703 [9] = assay: Induction of apoptosis in human NCI-H1703 cells assessed as viable cells at 10 uM measured after 72 hrs by PI/Annexin-V staining based flow cytometry analysis (reference value: 92.7% ); format: functional; settings: read-out: Activity
NCI-H1703 [10] = assay: Induction of apoptosis in human NCI-H1703 cells assessed as early apoptotic cells at 10 uM measured after 72 hrs by PI/Annexin-V staining based flow cytometry analysis (reference value: 1.47% ); format: functional
NCI-H1703 [11] = assay: Induction of apoptosis in human NCI-H1703 cells assessed as late apoptotic cells at 10 uM measured after 72 hrs by PI/Annexin-V staining based flow cytometry analysis (reference value: 3.00% ); format: functional
NCI-H1703 [12] = assay: Antiproliferative activity against human NCI-H1703 cells incubated for 6 days by CCK-8 method; format: functional, cell-based; settings: NCI-H1703, 144 h
[13] = Downregulation of CDC25A level in human NCI-H1703 cells at […] by measuring fold change by Western blot analysis relative to control; format: functional; settings: dose 7.5 µM
[14] = Downregulation of c-Myc level in human NCI-H1703 cells at […] by measuring fold change by Western blot analysis relative to control; format: functional; settings: dose 7.5 µM
[15] = Downregulation of NSD3 level in human NCI-H520 cells at 3 uM by measuring fold change by Western blot analysis relative to control; format: functional
[16] = Downregulation of CDC25A level in human NCI-H520 cells at 5 uM by measuring fold change by Western blot analysis relative to control; format: functional
[17] = Downregulation of c-Myc level in human NCI-H520 cells at 5 uM by measuring fold change by Western blot analysis relative to control; format: functional
[18] = Downregulation of c-Myc level in human NCI-H520 cells at […] by measuring fold change by Western blot analysis relative to control; format: functional; settings: dose 7.5 µM
NCI-H1703 [19] = assay: Induction of apoptosis in human NCI-H1703 cells assessed as decrease in MCL-1 protein expression at 5 uM by measuring fold change by Western blot analysis relative to control; format: functional
NCI-H520 [20] = assay: Induction of apoptosis in human NCI-H520 cells assessed as decrease in NSD3 protein expression at 10 uM by measuring fold change by Western blot analysis relative to control; format: functional
NCI-H520 [21] = assay: Induction of apoptosis in human NCI-H520 cells assessed as decrease in Bcl-XL protein expression at […] by measuring fold change by Western blot analysis relative to control; format: functional; settings: dose 7.5 µM

Cc1cc(CNCCCCCCCCCCC(=O)N[C@H](C(=O)N2C[C@H](O)C[C@H]2C(=O)N[C@@H](C)c2ccc(-c3scnc3C)cc2)C(C)(C)C)cc(C)c1-c1ncn(C)c1-c1ccnc2cc(F)ccc12
NSD3 degradation [1]: 58.9% | EC50 [2]: 940 nM | Activity [3]: Tde | Activity [4]: Tde | Activity (NCI-H1703 [5]): Active | Activity (NCI-H1703 [6]): Active | Activity (NCI-H1703 [7]): Active | viability at 5 µM (NCI-H1703 [8]): 81.2% | viability at 10 µM (NCI-H1703 [9]): 7.76% | Activity (NCI-H1703 [10]): 12.8% | Activity (NCI-H1703 [11]): 62.9% | IC50 (NCI-H1703 [12]): 2740 nM | fold change (FC) [13]: 0.77 | fold change (FC) [14]: 0.72 | fold change (FC) [15]: 0.67 | fold change (FC) [16]: 0.93 | fold change (FC) [17]: 0.97 | fold change (FC) [18]: 0.78 | fold change (FC) (NCI-H1703 [19]): 0.8 | fold change (FC) (NCI-H520 [20]): 0.49 | fold change (FC) (NCI-H520 [21]): 0.8
